From patent US11261466B2, “Homologous recombination factors” (Sinai Health System, priority 2015, dated 2022)

Tested on: USP11
Test: USP11 immunoblotting of irradiated U2OS cells (USP11 stability after DNA damage)
Format: cell-based
Conditions: irradiated (20 Gy), inhibitor at 5 μM, USP11 immunoblot, FIG. 11g
Description: FIG. 11. Characterization of USP11 protein stability a, U2OS cells synchronized in G1 or S/G2 were treated with cyclohexamide (CHX) and processed at the indicated time points to monitor USP11 stability. b, Immunoprecipitation (IP) of PALB2 from extracts prepared from 293T cells that were synchronized in G1 or S phase and treated or not with IR (20 Gy). c, U2OS cells were irradiated with a dose of 2 or 20 Gy and processed for USP11 immunoblotting at the indicated times post-IR. Actin was used as a loading control. d, U2OS cells, mock-treated or incubated with the ATM inhibitor KU55933 (ATMi), ATR inhibitor VE-821 (ATRi) or DNA-PKcs inhibitor NU7441 (DNAPKi), were irradiated (20 Gy) and processed for USP11 and actin (loading control) immunoblotting. e, Similar experiment to d except that cells were exposed to ultraviolet (UV) radiation (50 mJ/cm^−2). f, U2OS cells, mock-treated or incubated with the proteasome inhibitor MG132, were irradiated (20 Gy) and processed for USP11 and actin (loading control) immunoblotting. g, U2OS cells, mock-treated or incubated with the Cullin inhibitor MLN4924, were irradiated (20 Gy) and processed for USP11 and actin (loading control) immunoblotting. […]

NS(=O)(=O)OC[C@@H]1C[C@@H](n2ccc3c(N[C@H]4CCc5ccccc54)ncnc32)C[C@@H]1O [MLN4924]
DNA damage-induced degradation of USP11: protected USP11 from DNA damage-induced degradation
